Type in all cases: cell-based
The target of assay [1] is T1, von Hippel-Lindau disease tumor suppressor/Bromodomain-containing protein 4 (Homo sapiens, UniProt O60885+P40337). As to the kind of experiment: PROTAC activity at VHL/BRD4 in HEK293 cells assessed as induction of BRD4 degradation by measuring Tmax at 3 uM measured every 15 mins for 24 hrs in presence of VHL based ligand (2S,4R)-1-((S)-2-(2,3-dihydroxybenzamido)-3,3-dimethylbutanoyl)-4-hydroxy-N-(4-(4-methylthiazol-5-yl)benzyl)pyrrolidine-2-carboxamide by HiBiT based Combinatorial Ubiquitination Real-time PROteolysis analysis. On the technique in general: The HiBiT peptide binds its large partner to form an active luciferase.
T1 sequence (P40337 whole entry, looked up, other chains not shown): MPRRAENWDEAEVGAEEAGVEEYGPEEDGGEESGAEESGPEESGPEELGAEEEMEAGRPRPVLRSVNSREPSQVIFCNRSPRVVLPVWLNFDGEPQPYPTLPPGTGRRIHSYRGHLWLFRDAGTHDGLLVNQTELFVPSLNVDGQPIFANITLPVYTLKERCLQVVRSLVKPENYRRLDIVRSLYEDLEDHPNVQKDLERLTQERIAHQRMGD

Assay [2] addresses T1, von Hippel-Lindau disease tumor suppressor/Bromodomain-containing protein 4. As to the kind of experiment: PROTAC activity at BRD4/VHL in human MCF7 cells assessed as reduction in BRD4 level incubated for 24 hrs in presence of BRD4 based ligand ((4S)-6-(4-chlorophenyl)-4-(2-(ethylamino)-2-oxoethyl)-1-methyl4Hbenzo[f][1,2,4]triazolo [4,3-a][1,4]diazepin-8-yl)boronic acid by Western blot based Combinatorial Ubiquitination Real-time PROteolysis analysis. In general terms: Immunoblotting shows a protein as a band on a membrane.

Assay [3] has the same target. As to the kind of experiment: PROTAC activity at BRD4/VHL in human MCF7 cells assessed as induction of BRD4 degradation by measuring residual activity at 100 nM incubated for 24 hrs in presence of 10 uM VHL based ligand (2S,4R)-1-((S)-2-(2,3-dihydroxybenzamido)-3,3-dimethylbutanoyl)-4-hydroxy-N-(4-(4-methylthiazol-5-yl)benzyl)pyrrolidine-2-carboxamide by Western blot based Combinatorial Ubiquitination Real-time PROteolysis analysis.

Assay [4] has the same target. As to the kind of experiment: PROTAC activity at BRD4/VHL in human MCF7 cells assessed as induction of BRD4 degradation by measuring residual activity at 100 nM incubated for 24 hrs in presence of 300 nM VHL based ligand (2S,4R)-1-((S)-2-(2,3-dihydroxybenzamido)-3,3-dimethylbutanoyl)-4-hydroxy-N-(4-(4-methylthiazol-5-yl)benzyl)pyrrolidine-2-carboxamide by Western blot based Combinatorial Ubiquitination Real-time PROteolysis analysis.

The target is the same in assay [5]. The experiment in a line: PROTAC activity at BRD4/VHL in human MCF7 cells assessed as induction of BRD4 degradation by measuring residual activity at 1 uM incubated for 24 hrs in presence of 10 uM VHL based ligand (2S,4R)-1-((S)-2-(2,3-dihydroxybenzamido)-3,3-dimethylbutanoyl)-4-hydroxy-N-(4-(4-methylthiazol-5-yl)benzyl)pyrrolidine-2-carboxamide by Western blot based Combinatorial Ubiquitination Real-time PROteolysis analysis.

For assay [6] the target is unchanged. As to the kind of experiment: PROTAC activity at BRD4/VHL in human MCF7 cells assessed as induction of BRD4 degradation by measuring residual activity at 1 uM incubated for 24 hrs in presence of 1 uM VHL based ligand (2S,4R)-1-((S)-2-(2,3-dihydroxybenzamido)-3,3-dimethylbutanoyl)-4-hydroxy-N-(4-(4-methylthiazol-5-yl)benzyl)pyrrolidine-2-carboxamide by Western blot based Combinatorial Ubiquitination Real-time PROteolysis analysis.

For assay [7] the target is unchanged. As to the kind of experiment: PROTAC activity at BRD4/VHL in human MCF7 cells assessed as induction of BRD4 degradation by measuring residual activity at 300 nM incubated for 24 hrs in presence of BRD4 based ligand ((4S)-6-(4-chlorophenyl)-4-(2-(ethylamino)-2-oxoethyl)-1-methyl4Hbenzo[f][1,2,4]triazolo [4,3-a][1,4]diazepin-8-yl)boronic acid by Western blot based Combinatorial Ubiquitination Real-time PROteolysis analysis.

Assay [8] has the same target. As to the kind of experiment: PROTAC activity at BRD4/VHL in human MCF7 cells assessed as induction of BRD4 degradation by measuring residual activity at 100 nM incubated for 24 hrs in presence of 100 nM BRD4 based ligand ((4S)-6-(4-chlorophenyl)-4-(2-(ethylamino)-2-oxoethyl)-1-methyl4Hbenzo[f][1,2,4]triazolo [4,3-a][1,4]diazepin-8-yl)boronic acid by Western blot based Combinatorial Ubiquitination Real-time PROteolysis analysis.

Assay [9] shares this target. The experiment in a line: PROTAC activity at BRD4/VHL in human MCF7 cells assessed as induction of BRD4 degradation by measuring residual activity at 100 nM incubated for 24 hrs in presence of 3 uM BRD4 based ligand ((4S)-6-(4-chlorophenyl)-4-(2-(ethylamino)-2-oxoethyl)-1-methyl4Hbenzo[f][1,2,4]triazolo [4,3-a][1,4]diazepin-8-yl)boronic acid by Western blot based Combinatorial Ubiquitination Real-time PROteolysis analysis.

For assay [10] the target is unchanged. The experiment in a line: PROTAC activity at BRD4/VHL in human MCF7 cells assessed as induction of BRD4 degradation by measuring residual activity at 10 uM incubated for 24 hrs in presence of 100 nM BRD4 based ligand ((4S)-6-(4-chlorophenyl)-4-(2-(ethylamino)-2-oxoethyl)-1-methyl4Hbenzo[f][1,2,4]triazolo [4,3-a][1,4]diazepin-8-yl)boronic acid by Western blot based Combinatorial Ubiquitination Real-time PROteolysis analysis.

Assay [11] shares this target. The experiment in a line: PROTAC activity at VHL/BRD4 in HEK293 cells assessed as induction of BRD4 degradation by measuring maximal level of degradation at 3 uM measured every 15 mins for 24 hrs in presence of BRD4 based ligand ((4S)-6-(4-chlorophenyl)-4-(2-(ethylamino)-2-oxoethyl)-1-methyl4Hbenzo[f][1,2,4]triazolo [4,3-a][1,4]diazepin-8-yl)boronic acid by HiBiT based Combinatorial Ubiquitination Real-time PROteolysis analysis.

Assay [12] has the same target. The experiment in a line: PROTAC activity at VHL/BRD4 in HEK293 cells assessed as induction of BRD4 degradation by measuring Tmax at 3 uM measured every 15 mins for 24 hrs in presence of BRD4 based ligand ((4S)-6-(4-chlorophenyl)-4-(2-(ethylamino)-2-oxoethyl)-1-methyl4Hbenzo[f][1,2,4]triazolo [4,3-a][1,4]diazepin-8-yl)boronic acid by HiBiT based Combinatorial Ubiquitination Real-time PROteolysis analysis.

The target is the same in assay [13]. The experiment in a line: PROTAC activity at BRD4/VHL in human MCF7 cells assessed as induction of BRD4 degradation by measuring residual activity at 10 uM incubated for 24 hrs in presence of 300 nM BRD4 based ligand ((4S)-6-(4-chlorophenyl)-4-(2-(ethylamino)-2-oxoethyl)-1-methyl4Hbenzo[f][1,2,4]triazolo [4,3-a][1,4]diazepin-8-yl)boronic acid by Western blot based Combinatorial Ubiquitination Real-time PROteolysis analysis.

Assay [14] shares this target. As to the kind of experiment: PROTAC activity at VHL/BRD4 in human MCF7 cells assessed as induction of BRD4 degradation at 10 uM measured at 4 hrs in presence of BRD4 based ligand ((4S)-6-(4-chlorophenyl)-4-(2-(ethylamino)-2-oxoethyl)-1-methyl4Hbenzo[f][1,2,4]triazolo [4,3-a][1,4]diazepin-8-yl)boronic acid by Western blot based Combinatorial Ubiquitination Real-time PROteolysis analysis.

For assay [15] the target is unchanged. As to the kind of experiment: PROTAC activity at VHL/BRD4 in HEK293 cells assessed as induction of BRD4 degradation by measuring maximal level of degradation at 10 uM measured every 15 mins for 24 hrs in presence of BRD4 based ligand ((4S)-6-(4-chlorophenyl)-4-(2-(ethylamino)-2-oxoethyl)-1-methyl4Hbenzo[f][1,2,4]triazolo [4,3-a][1,4]diazepin-8-yl)boronic acid by HiBiT based Combinatorial Ubiquitination Real-time PROteolysis analysis.

Active and inactive are the calls of the source. The rule behind the calls is not given here.

On to `CCNC(=O)C[C@@H]1N=C(c2ccc(Cl)cc2)c2cc(B(O)O)ccc2-n2c(C)nnc21`, for which the Tmax in assay [1] came out at 18 h. The result in assay [2] was inactive. In addition, the Activity is 87% in assay [3], 77% in assay [4], 20% in assay [5] and 35% in assay [6].

Turning to `Cc1ncsc1-c1ccc(CNC(=O)[C@@H]2C[C@@H](O)CN2C(=O)[C@@H](NC(=O)c2cccc(O)c2O)C(C)(C)C)cc1`, the Activity came out at 100% in assay [7]; 97% in assay [8]; 74% in assay [9]; 55% in assay [10]; 48% in assay [13]; 100% in assay [14]. The figures for the Emax in assay [11] and in [15] were 93% and 96%, respectively. Besides, in assay [12], the Tmax was found to be 18 h.

As usually defined, the Emax is the greatest response seen or fitted, relative to the assay's reference.

The values above are taken from ChEMBL document CHEMBL5543126, “Combinatorial Ubiquitination REal-time PROteolysis (CURE-PROs): A Modular Platform for Generating Reversible, Self-Assembling Bifunctional Targeted Degraders” (J Med Chem, 2024).
